We go through 2 substances from patent US8895717B2, “Delivery of siRNA by neutral lipid compositions” (The Board of Regents of the University of Texas System, priority 2005, dated 2014).

d = 2'-deoxy (DNA); r = 2'-OH (RNA)

The test system of one series is HeyA8-MDR cells. Kind of series: In vivo therapy with DOPC-FAK siRNA, HeyA8-MDR model. Set-up: species or system nude mice. To be noted: for Incidence (%) / No. Nodules: siRNA in DOPC twice weekly, docetaxel 50 μg weekly. The protocol: (§1) siRNA for in vivo delivery was incorporated into the phospholipid 1,2-dioleoyl-sn-glycero-3-phosphatidylcholine (DOPC). DOPC and siRNA were mixed in the presence of excess tertiary-butanol at a ratio of […], as previously described (Landen et al., 2005). Tween-20 was added to the mixture at a ratio of 1:19. The mixture was vortexed, frozen in an acetone/dry ice bath, and lyophilized. Before in vivo administration, this preparation was hydrated with normal (0.9%) saline at a concentration of 15 μg/ml to achieve the desired dose of 150-200 μl per injection. To estimate the quantity of siRNA not taken up by liposomes free siRNA was separated from liposomes by using filter units with a 30,000 nominal molecular weight limit (Millipore Corp, Billerica, Mass.). The liposomal suspension was added to the filters and centrifuged at 5,000 g for 40 min at room temperature. Fractions were collected, the material trapped in the filter was reconstituted with 0.9% saline, and the amount of siRNA in the collected fraction and eluent were measured by spectrophotometry.
(§2) To produce tumors, SKOV3ip1, Hey A8-MDR cells (1×10^6 cells/0.2 ml of HBSS) and Hey A8 cells (2.5×10^5 cells/0.2 ml of HBSS) were injected interperitoneally (i.p.) into the mice. For in vivo injections, cells were trypsinized and centrifuged at 1000 rpm for 7 minutes at 4° C., washed twice with PBS and reconstituted in serum-free Hank's balanced salt solution (HBSS, Life Technologies, Carlsbad, Calif.). Only single-cell suspensions with >95% viability, as determined by trypan blue exclusion, were used for the in vivo injections. Mice (n=10 per group) were monitored for adverse effects of therapy and were sacrificed on day 35 (SKOV3ip1) or day 28 (HeyA8 or HeyA8-MDR) or when any of the mice began to appear moribund. Mouse weight, tumor weight, and tumor distribution were recorded. Tissue specimens were snap frozen for lysate preparation, fixed in formalin for paraffin embedding or frozen on OCT compound (Miles, Inc., Elkhart, Ind.) for frozen slide preparation.
(§3) Based on the results of preliminary dose-response studies, a series of three separate therapy studies were initiated using the optimal FAK siRNA dosage. Tumor cells were injected i.p. and 7 days later, the mice were randomly assigned to five treatment groups: empty liposome twice weekly, non-specific control […] siRNA (3 μg) twice weekly, control FAK siRNA (3 μg) twice weekly in combination with 50 μg docetaxel weekly, FAK siRNA twice weekly and FAK siRNA (3 μg) twice weekly in addition to 50 μg docetaxel weekly.
Chemotherapy-resistance is a common clinical problem in the management of ovarian carcinoma. Despite high response rates with initial therapy, most patients develop recurrent tumors that are resistant to taxane and platinum chemotherapy (McGuire et al., 1996). […] Consequently FAK downregulation and its effects on sensitization of resistant tumors to chemotherapy, using the HeyA8-MDR cell line (FIG. 13C) was assessed. Therapy was started 7 days after injection of tumor cells into nude mice according to the 5 groups outlined above.

A further series relates to HeyA8 cells. The series is described as follows: Cytotoxicity assay (MTT), HeyA8. Format: cell-based, human. As to conditions: HeyA8; siRNA 48 hours before docetaxel; at 50% cytotoxicity. The protocol:
The medium was exchanged after 48 hours with increasing concentrations of docetaxel (obtained from Aventis Pharma, Bridgewater, N.J.) dissolved in ethanol (final concentration range, 0.1-10,000 nmol/L prepared in medium) or cisplatin (purchased from LKT Laboratories, Inc., St. Paul, Minn.) dissolved in water. After a 96-hour incubation, 50 μL of 0.15% 3-(4,5-dimethylthiazol-2-yl)-2,5-diphenyltetrazolium bromide was added to each well and incubated for 2 hours. The supernatant was removed, and cells were dissolved in 100 μL DMSO. The absorbance at 570 nm was recorded using a FALCON microplate reader (Becton Dickinson Labware, Bedford, Mass.), and cell survival expressed as a percent increase or decrease above control conditions, after subtracting blank A570 readings. The IC50 concentration was determined by finding the A570 reading midpoint between maximal and minimal readings and finding the chemotherapy concentration that intersects the growth curve at that A570 reading.

A further series concerns caspase-3. The series is described as follows: Caspase-3 activity in ovarian cancer cells (DEVD-AFC). It counts as cell-based, human. As to conditions: taxane-sensitive and taxane-resistant cell lines. Here is the method:
Ovarian cancer cells (1×10^6) in culture (six-well plates) were treated with or without docetaxel at the cell line specific IC50 or IC90 concentration for 24 hours. After washing with PBS, cells were lysed in 50 μL of cell lysis buffer provided. Caspase-3, caspase-8, and caspase-9 activities were measured with the appropriate apoptosis detection kit (BD Biosciences/Clontech, Palo Alto, Calif.), using substrate DEVD-AFC for caspase-3, IETD-AFC for caspase-8, and LEHD-AMC for caspase-9.

For the next series, the system named is SKOV3ip1 cells. Kind of series: In vivo therapy with DOPC-FAK siRNA, SKOV3ip1 model. The arrangement: species or system nude mice. As to conditions: for Incidence (%) / No. Nodules: siRNA in DOPC twice weekly, docetaxel 50 μg weekly. Here is the method: as §1, §2, §3
The SKOV3ip1 or HeyA8 ovarian cancer cells were implanted into the peritoneal cavity of athymic nude mice for experiments designed to test the therapeutic potential of FAK-targeted inhibition of gene expression. Seven days later, therapy was started according to the following five treatment groups: 1) empty liposomes; 2) non-specific siRNA-DOPC; 3) docetaxel plus non-specific siRNA-DOPC; 4) FAK targeted siRNA-DOPC; and 5) docetaxel plus FAK-targeted siRNA-DOPC. The animals were sacrificed after 4 weeks of therapy and a necropsy was performed. The data for these therapies' effects on SKOV3ip1 and HeyA8 are summarized in FIGS. 6A and 6B, respectively. […] Treatment with FAK siRNA alone or docetaxel plus control siRNA were effective in inhibiting tumor growth (54 to 74%) in both cell lines compared with control (FIG. 13).

A further series relates to Murine FAK. The series is described as follows: FAK siRNA treatment of murine endothelial cells. Format: cell-based, mouse. To be noted: murine endothelial cells from the ovary of ImmortoMice. The text has this:
To determine potential mechanisms underlying the efficacy of anti-FAK based therapy, its effects on several biological endpoints were examined, including angiogenesis (MVD), proliferation (PCNA), and apoptosis (TUNEL). Due to growing evidence related to FAK and tumor angiogenesis (Kornberg et al., 2004; Mitra et al., 2005). The inventors evaluated vessel density (FIG. 14B) in the tumors harvested from the studies described above. […] To determine if FAK siRNA mediated in vivo effects on endothelial cells were direct, the inventors treated murine endothelial cells isolated from the ovary of ImmortoMice (H-2k(b)-ts A58) (Langley et al., 2003) with FAK siRNA. Murine FAK levels were not altered by the FAK siRNA used for the in vivo studies (data not shown).

As for “FAK siRNA: sense r(CCACCUGGGCCAGUAUUAU)d(TT), antisense r(AUAAUACUGGCCCAGGUGG)d(TT); for in vivo delivery incorporated into DOPC (sense CCACCUGGGCCAGUAUUAUTT; antisense AUAAUACUGGCCCAGGUGGTT; sugars from the 5' end r19 d2, backbone not given here)”, in the series on HeyA8-MDR cells, the “reduction in tumor growth compared to control” value is listed as “about 44%”, the “Incidence (%)” value came to 70% and the “No. Nodules” value is reported as 2.1. In addition, the “fold greater docetaxel cytotoxicity after FAK down-regulation” value with HeyA8 cells is listed as 8 fold. Also, the “caspase-3 activity, siRNA alone” value in the series with caspase-3 is reported as “did not potentiate the activity of caspase-3”. Further, in the series with SKOV3ip1 cells, the “Incidence (%)” value is on record as 70% and the “No. Nodules” value amounted to 3.7. Further, the “Murine FAK levels” value with Murine FAK is “not altered”.

Take “control siRNA: sense r(UUUUCCGAACGUGUCACGU)dTT, antisense r(ACGUGACACGUUCGGAGAA)dTT, no homology with human mRNA; in vivo in DOPC (sense UUUUCCGAACGUGUCACGUTT; antisense ACGUGACACGUUCGGAGAATT; sugars from the 5' end r19 d2, backbone not given here)”: in the series on HeyA8-MDR cells, the “Incidence (%)” value was 90% and the “No. Nodules” value worked out at 4.4. The “caspase-3 activity, siRNA alone” value in the series with caspase-3 is reported as “did not potentiate the activity of caspase-3”. In addition, in the series with SKOV3ip1 cells, the “efficacy compared with empty liposomes” value is reported as “not effective against SKOV3ip1 tumors”, the “Incidence (%)” value was 100% and the “No. Nodules” value is listed as 15.
